The text below walks through data of patent US12559776B2, “Chemical and biological integrated degradation process for polyethylene terephthalate (PET), for recycling pet” (Korea University Research and Business Foundation, priority 2021, dated 2026).

Series [1] is described as follows: pH of 50 mM sodium phosphate buffer after adding TPA. The series is classed as physicochemical. To be noted: TPA 4 g/L in 50 mM sodium phosphate buffer (pH 8). Here is the method:
Based on the defined enzyme input amounts, a hydrolase reaction was performed using the product of PET glycolysis, in which betaine was used, as a substrate. Accordingly, the efficient input amounts of the IsPETase^Mut and IsMHETase^Mut enzymes relative to substrates were to be confirmed without wasting the enzymes. The reaction conditions included a PET glycolysis product including 10 g/L of BHET as a substrate, 50 mM sodium phosphate buffer (pH 8), and a volume of 500 μL. After the reaction was performed at 40° C. for 6 hours, 30 min, 1 hr, 3 hr, and 6 hr, samples were diluted in methanol and centrifuged at 25,188 g for 10 minutes, and followed by analyzing the supernatant through high performance liquid chromatography (HPLC). As a result, in FIG. 6c, when the enzyme input amounts are 2.3 U/L and 4.5 U/L, compared to 9.0 U/L, it was confirmed that the amount of the product TPA is low. As the reaction progressed, it was expected that the pH was lowered and the enzyme activity was lost due to the influence of the product TPA. First, to confirm how low the pH is under the enzymatic hydrolysis reaction conditions due to the influence of TPA, TPA was added at a concentration of 0 to 10 g/L under the condition of 50 mM sodium phosphate buffer (pH 8). As a result, in FIG. 6d, the pHs of all samples were measured with a pH meter and visually confirmed with pH paper. […]

The nature of series [2]: PET glycolysis in EG with catalyst (microwave). Conditions: 190 °C. Here is the method:
To establish an economical and efficient PET upcycling process, a chemical PET depolymerization process is required. […] A conventional PET glycolysis method mainly used a heavy metal catalyst. The use of a metal catalyst may have an adverse effect on the biological process of the integrated process and have adverse environmental effects, so glycolysis was performed in a microwave digestion system using betaine instead of a metal catalyst. Specifically, 3.5 to 11.5 g of granular PET and a specific amount of EG were reacted using betaine as a catalyst at 190° C. for 30 to 120 minutes. To maintain the reaction conditions, a microwave digester (Milestone, Shelton, CT) with a thermocouple and magnetic stirrer function was used, and the reaction was performed in a 100 mL reaction vessel for exclusive use of a microwave digester.
To determine the glycolysis effect of betaine, first, the input amount of a substrate was optimized. Glycolysis was performed at 190° C. for 30 minutes by adding 0.5% (catalyst/PET, w/w ratio) betaine to a PET substrate and an EG solvent at a molar ratio (PET:EG) of 1:3, 1:4, 1:5, 1:6, 1:10, or 1:20. Here, the major product BHET and a by-product MHET were produced. The BHET and MHET concentrations were measured by liquid chromatography. As a result, it was confirmed that the highest yield was obtained under a substrate input condition corresponding to a PET:EG molar ratio of 1:5. However, considering the concentration of the final product, it was confirmed that the yield was even higher under the substrate input condition corresponding to the PET:EG molar ratio of 1:4. […] Accordingly, the substrate input condition corresponding to a PET:EG molar ratio of 1:4 was selected, and further conditions were established (Table 2).
To confirm the catalytic effect on the input amount of betaine, betaine corresponding to 0, 0.1, 0.5, 1% (catalyst/PET, w/w ratio) was added, and glycolysis was performed at 190° C. for 30 minutes. As a result, it was confirmed that the condition of adding betaine corresponding to 0.5% (catalyst/PET, w/w ratio) is optimal. Accordingly, this condition was selected, and further conditions were established (Table 2)
Next, to confirm the effect by glycolysis reaction time, the reaction was performed at 190° C. under various reaction time conditions of 30, 60, 90, and 120 minutes. As a result, it was confirmed that 60 minutes is the optimal condition. […] Afterward, in a biological process, the PET glycolysis product that had been produced under the above conditions was used as a substrate (Table 2). […]
To analyze a PET glycolysis product using betaine as a catalyst, high performance liquid chromatography (HPLC) analysis was performed. HPLC analysis conditions are as follows. As a column, a C18 column (OpitmaPak C18-51001546, 5 μm, 150 mm×4.6 mm) was used, and a column temperature was maintained at 25° C. during the analysis. Two mobile phases, A and B, were used, wherein A is 0.1% trifluoroacetic acid in distilled water, and B is methanol. During the analysis at a flow rate of 1 mL/min for 27 minutes, the proportion of the mobile phase B was maintained at 5% at 0 to 2 minutes, and the proportion of the mobile phase B was changed from 5 to 57% at 2 to 18 minutes. At 18 to 22 minutes, the proportion of the mobile phase B was changed from 57 to 5%. Finally, at 22 to 27 minutes, the proportion of the mobile phase B was maintained at 5%. Chromatography was performed at a wavelength of 254 nm using a UV/Vis detector.

Series [3] deals with T1, IsPETase^Mut (Piscinibacter sakaiensis, UniProt A0A0K8P6T7, D186H/R280A/S121E).
T1 construct: His tag (pET28a vector) (N); made in house; host or cells: E. coli BL21(DE3)
Put plainly: Inhibitory effect of catalysts on IsPETase^Mut enzyme reaction. Conditions: 1 mM; enzyme 2.3 U/L; substrate BHET; 50 mM sodium phosphate buffer (pH 8); 40 °C, 15 minutes. Format: biochemical, Ideonella sakaiensis. On the procedure:
(§1) To confirm whether the metal catalysts used in conventional PET glycolysis and betaine, which is an eco-friendly catalyst selected in this study, can have inhibitory effects on enzymatic hydrolysis, IsPETase^Mut and IsMHETase^Mut enzyme experiments were performed using 1 mM each of betaine, Ca^2+, Co^2+, Cu^2+, Fe^2+, Mg^2+, Mn^2+, Ni^2+, pb^2+, Zn^2+, and Li^+. The experiments were performed under conditions including an enzyme concentration of 2.3 U/L, 2.5 mg each of the substrates BHET and MHET, 50 mM sodium phosphate buffer (pH 8), and a volume of 500 μL. After performing the reaction at 40° C. for 15 minutes, all samples were diluted in methanol and centrifuged at 25,188 g for 10 minutes, followed by analyzing the supernatant through high performance liquid chromatography (HPLC). […] Therefore, the product of PET glycolysis using betaine may be used in enzymatic hydrolysis.

For series [4], the target named is T2, IsMHETase^Mut (Piscinibacter sakaiensis, UniProt A0A0K8P8E7, W397A).
T2 construct: His tag (pET28a vector) (N); made in house; host or cells: E. coli BL21(DE3)
The series is described as follows: Inhibitory effect of catalysts on IsMHETase^Mut enzyme reaction. Format: biochemical, Ideonella sakaiensis. Conditions: 1 mM; enzyme 2.3 U/L; substrate MHET; 50 mM sodium phosphate buffer (pH 8); 40 °C, 15 minutes. Here is the method:
as §1

For series [5] the following is noted: PET film; pH 7.0; 30 °C; 18 h; Yoshida et al.; cited from earlier work.
Where [6] appears, read: PET/EG 1:4, catalyst/PET 0.5 wt %, 60 min.
The mark [7] stands for this setting: PET/EG 1:3, catalyst/PET 0.5 wt %, 30 min.
The mark [8] stands for this setting: PET/EG 1:4, catalyst/PET 0.1 wt %, 30 min.
[9] abbreviates: PET/EG 1:4, catalyst/PET 0.5 wt %, 30 min.
[10] abbreviates: PET/EG 1:4, catalyst/PET 0.5 wt %, 90 min.
The mark [11] stands for this setting: PET/EG 1:4, catalyst/PET 0.5 wt %, 120 min.
Setting [12] is: PET/EG 1:4, catalyst/PET 1 wt %, 30 min.
Setting [13] is: PET/EG 1:5, catalyst/PET 0.5 wt %, 30 min.
Where [14] appears, read: PET/EG 1:6, catalyst/PET 0.5 wt %, 30 min.
Setting [15] is: PET/EG 1:10, catalyst/PET 0.5 wt %, 30 min.
The mark [16] stands for this setting: PET/EG 1:20, catalyst/PET 0.5 wt %, 30 min.

T2 sequence (A0A0K8P8E7 other isoform, or with tags, fused parts or gaps W397A): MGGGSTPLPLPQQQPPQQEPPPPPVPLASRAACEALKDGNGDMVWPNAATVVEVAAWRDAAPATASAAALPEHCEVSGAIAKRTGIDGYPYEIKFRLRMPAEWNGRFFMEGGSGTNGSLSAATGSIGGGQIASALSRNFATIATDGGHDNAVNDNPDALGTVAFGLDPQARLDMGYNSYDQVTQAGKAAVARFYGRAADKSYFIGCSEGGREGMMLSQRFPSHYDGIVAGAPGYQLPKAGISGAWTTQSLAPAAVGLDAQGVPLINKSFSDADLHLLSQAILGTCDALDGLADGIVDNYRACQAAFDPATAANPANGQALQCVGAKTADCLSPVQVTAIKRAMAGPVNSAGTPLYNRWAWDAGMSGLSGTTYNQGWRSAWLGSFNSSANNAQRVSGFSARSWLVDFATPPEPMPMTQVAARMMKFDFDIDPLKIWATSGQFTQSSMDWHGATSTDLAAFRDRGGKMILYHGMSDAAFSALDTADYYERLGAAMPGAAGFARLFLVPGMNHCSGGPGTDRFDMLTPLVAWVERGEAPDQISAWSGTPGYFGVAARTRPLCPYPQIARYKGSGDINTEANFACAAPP
T1 sequence (A0A0K8P6T7 other isoform, or with tags, fused parts or gaps S121E/D186H/R280A): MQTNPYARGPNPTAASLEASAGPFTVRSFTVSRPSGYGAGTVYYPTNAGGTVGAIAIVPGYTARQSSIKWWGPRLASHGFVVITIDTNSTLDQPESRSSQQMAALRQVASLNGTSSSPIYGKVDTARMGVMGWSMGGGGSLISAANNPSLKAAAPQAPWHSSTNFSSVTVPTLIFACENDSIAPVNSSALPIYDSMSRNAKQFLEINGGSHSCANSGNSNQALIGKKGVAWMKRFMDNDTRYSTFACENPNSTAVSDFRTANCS

Turning to `O=C(O)c1ccc(C(=O)O)cc1` [TPA, terephthalic acid], the pH in series [1] worked out at 5.47.
Take `C1CN=C2NCCCN2C1` [TBD, 1,5,7-triazabicyclo[4.4.0]dec-5-ene, reference compound]: in series [2] (setting [6]), the “collective yield of BHET and MHET” value is listed as 55.1%; the “titer of BHET” value is listed as 328.4 g/L; the “titer of MHET” value was found to be 45.9 g/L.
For the molecule `C[N+](C)(C)CC(=O)O` [betaine], the “inhibitory effect on IsPETase^Mut enzyme reaction” value in series [3] was “no inhibitory effect”. Besides, the “collective yield of BHET and MHET” value came to 34.6% in series [2] (setting [7]); 26.6% in series [2] (setting [8]); 52.3% in series [2] (setting [9]); 58.7% in series [2] (setting [6]); 55.1% in series [2] (setting [10]); 53.8% in series [2] (setting [11]). The “collective yield of BHET and MHET” value in series [2] (setting [12]) amounted to 42.4%; in series [2] (setting [13]), 52.7%; in series [2] (setting [14]) it was 51.6%; in series [2] (setting [15]), 49.8%; in series [2] (setting [16]), 37.2%. Also, the “titer of BHET” value in series [2] (setting [7]) was determined as 256.8 g/L; in series [2] (setting [8]), 185.3 g/L; in series [2] (setting [9]) it was 330.6 g/L; in series [2] (setting [6]), 368.6 g/L; in series [2] (setting [10]), 341.2 g/L; in series [2] (setting [11]), 313.8 g/L. The “titer of BHET” value is given as 286.9 g/L in series [2] (setting [12]); 307.6 g/L in series [2] (setting [13]); 268.3 g/L in series [2] (setting [14]); 189.8 g/L in series [2] (setting [15]); 81.3 g/L in series [2] (setting [16]). The “titer of MHET” value turned out to be 24.9 g/L in series [2] (setting [7]); 27.6 g/L in series [2] (setting [9]); 32.8 g/L in series [2] (setting [6]); 35.1 g/L in series [2] (setting [10]); 50.4 g/L in series [2] (setting [11]); 6.8 g/L in series [2] (setting [12]). In addition, the “titer of MHET” value stood at 21.6 g/L in series [2] (setting [13]), 19.1 g/L in series [2] (setting [14]), 6.7 g/L in series [2] (setting [15]) and 2.9 g/L in series [2] (setting [16]). Also, the “inhibitory effect on IsMHETase^Mut enzyme reaction” value in series [4] is on record as “no inhibitory effect”.

B1: /sPETase^Wild: wild-type PETase of I. sakaiensis, SEQ ID NO: 3 (protein)
chain: HMQTNPYARGPNPTAASLEASAGPFTVRSFTVSRPSGYGAGTVYYPTNAGGTVGAIAIVPGYTARQSSIKWWGPRLASHGFVVITIDTNSTLDQPSSRSSQQMAALRQVASLNGTSSSPIYGKVDTARMGVMGWSMGGGGSLISAANNPSLKAAAPQAPWDSSTNFSSVTVPTLIFACENDSIAPVNSSALPIYDSMSRNAKQFLEINGGSHSCANSGNSNQALIGKKGVAWMKRFMDNDTRYSTFACENPNSTRVSDFRTANCSLE
modifications: IsMHETase_wt
Regarding B1, in series [5], the “sum of TPA, MHET and BHET” value is recorded as “(0.3 mM”.
